Experimental data reported in the supplement of paper PMC10627819.

Experiments:
Experiment in all cases: fitness (endpoint OD595 vs no drug) (fraction); higher = more growth
S. aureus Newman = conditions: one replicate, main component drawn
Procedure, shortened: (§1)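 Plates with 384 wells were inoculated at OD595 0.01 using 30 µl of TSB, LB Lennox or CY, or 55 µl for S. pneumoniae. Incubation was at 37 °C, with OD595 measured every 30 min for 14 h. Fitness is the stationary-phase transition optical density over the robust mean of no-drug control wells, after first-reading background subtraction; it is capped at 1.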

S. pneumoniae D39V = test system: S. pneumoniae D39V
Procedure, shortened: as §1

B. subtilis 168 = test system: B. subtilis 168
Procedure, shortened: as §1

O=C(O)[C@H]1/C(=C/CO)O[C@@H]2CC(=O)N21 [Clavulanic acid] + CCCCCCCCCC(=O)N[C@@H]1[C@H]([C@@H]([C@H](O[C@H]1OC2=C3C=C4C=C2OC5=C(C=C(C=C5)[C@H]([C@H]6C(=O)N[C@@H](C7=C(C(=CC(=C7)O)OC8[C@H]([C@H]([C@@H]([C@H](O8)CO)O)O)O)C9=C(C=CC(=C9)[C@H](C(=O)N6)NC(=O)[C@@H]4NC(=O)[C@@H]1C2=CC(=CC(=C2)OC2=C(C=CC(=C2)[C@H](C(=O)N[C@H](CC2=CC(=C(O3)C=C2)Cl)C(=O)N1)N)O)O)O)C(=O)O)O[C@H]1[C@@H]([C@H]([C@@H]([C@H](O1)CO)O)O)NC(=O)C)Cl)CO)O)O [Teicoplanin]
fitness, S. aureus Newman
Conditions	first compound 0.03125 µg/mL	first compound 0.0625 µg/mL	first compound 0.125 µg/mL
partner 0.1562 µg/mL	0.992	0.966	0.916
partner 0.3125 µg/mL	0.924	≥ 1	0.894
partner 0.625 µg/mL	≥ 1	≥ 1	0.967

O=C(O)[C@H]1/C(=C/CO)O[C@@H]2CC(=O)N21 [Clavulanic acid] + CCC[C@@H]1C[C@@H](C(=O)N[C@@H]([C@H]2O[C@H](SC)[C@H](O)[C@@H](O)[C@H]2O)[C@@H](C)O)N(C)C1 [Lincomycin]
fitness
Conditions	partner 0.1 µg/mL	partner 0.2 µg/mL	partner 0.215 µg/mL	partner 0.4 µg/mL	partner 0.43 µg/mL	partner 0.8 µg/mL	partner 0.86 µg/mL
B. subtilis 168, first compound 1.5 µg/mL	0.91	0.868	–	0.892	–	–	–
B. subtilis 168, first compound 3 µg/mL	0.835	0.837	–	0.838	–	–	–
B. subtilis 168, first compound 6 µg/mL	0.822	0.686	–	0.704	–	–	–
S. pneumoniae D39V, first compound 0.5 µg/mL	–	0.571	0.828	0.326	0.726	0.0312	0.39
S. pneumoniae D39V, first compound 1 µg/mL	–	0.591	0.809	0.354	0.687	0.186	0.332
S. pneumoniae D39V, first compound 2 µg/mL	–	0.406	0.726	0.258	0.606	0.045	0.21

fitness, B. subtilis 168, one replicate
Conditions	first compound 1.5 µg/mL	first compound 3 µg/mL	first compound 6 µg/mL
partner 0.8 µg/mL	0.832	0.761	0.729
partner 1.6 µg/mL	0.913	0.802	0.708

O=C(O)[C@H]1/C(=C/CO)O[C@@H]2CC(=O)N21 [Clavulanic acid] + CC[C@H]1OC(=O)[C@H](C)[C@@H](O[C@H]2C[C@@](C)(OC)[C@@H](O)[C@H](C)O2)[C@H](C)[C@@H](O[C@@H]2O[C@H](C)C[C@H](N(C)C)[C@H]2O)[C@](C)(OC)C[C@@H](C)C(=O)[C@H](C)[C@@H](O)[C@]1(C)O [Clarithromycin]
fitness, S. pneumoniae D39V, one replicate
Conditions	first compound 0.5 µg/mL	first compound 1 µg/mL	first compound 2 µg/mL
partner 0.007812 µg/mL	0.855	0.828	0.801
partner 0.01562 µg/mL	0.829	0.792	0.769
partner 0.03125 µg/mL	0.597	0.574	0.509

fitness, S. pneumoniae D39V
Conditions	partner 0.0625 µg/mL	partner 0.07 µg/mL	partner 0.125 µg/mL	partner 0.14 µg/mL	partner 0.25 µg/mL	partner 0.28 µg/mL
first compound 0.5 µg/mL	0.486	0.103	0.232	0.0628	0.0756	0.0401
first compound 1 µg/mL	0.541	0.088	0.361	0.0781	0.209	0.0556
first compound 2 µg/mL	0.325	0.0584	0.191	0.062	0.0711	0.0369

O=C(O)[C@H]1/C(=C/CO)O[C@@H]2CC(=O)N21 [Clavulanic acid] + CN(C)C(=O)C(CCN1CCC(O)(c2ccc(Cl)cc2)CC1)(c1ccccc1)c1ccccc1 [Loperamide]
fitness
Conditions	first compound 0.5 µg/mL	first compound 1 µg/mL	first compound 1.5 µg/mL	first compound 2 µg/mL	first compound 3 µg/mL	first compound 6 µg/mL
B. subtilis 168, partner 25 µg/mL	–	–	0.848	–	0.742	0.614
S. pneumoniae D39V, partner 17.14 µg/mL	0.954	0.95	–	0.836	–	–
S. pneumoniae D39V, partner 20 µg/mL	≥ 1	≥ 1	–	0.89	–	–
S. pneumoniae D39V, partner 34.28 µg/mL	0.931	0.913	–	0.75	–	–
S. pneumoniae D39V, partner 40 µg/mL	≥ 1	≥ 1	–	0.926	–	–
S. pneumoniae D39V, partner 80 µg/mL	0.0391	0.185	–	0.0465	–	–

S. pneumoniae D39V, partner 68.57 µg/mL, one replicate
Conditions	fitness
first compound 0.5 µg/mL	0.952
first compound 1 µg/mL	0.944
first compound 2 µg/mL	0.849

O=C(O)[C@H]1/C(=C/CO)O[C@@H]2CC(=O)N21 [Clavulanic acid] + CN(C)[C@@H]1C(O)=C(C(N)=O)C(=O)[C@@]2(O)C(O)=C3C(=O)c4c(O)ccc(Cl)c4[C@@](C)(O)[C@H]3C[C@@H]12 [Chlortetracycline]
fitness
Conditions	partner 0.012 µg/mL	partner 0.024 µg/mL	partner 0.0475 µg/mL	partner 0.048 µg/mL	partner 0.095 µg/mL	partner 0.19 µg/mL	partner 0.375 µg/mL	partner 0.75 µg/mL	partner 1.5 µg/mL
B. subtilis 168, first compound 1.5 µg/mL	–	–	0.873	–	0.754	0.58	–	–	–
B. subtilis 168, first compound 3 µg/mL	–	–	0.838	–	0.708	0.512	–	–	–
B. subtilis 168, first compound 6 µg/mL	–	–	0.745	–	0.582	0.422	–	–	–
S. pneumoniae D39V, first compound 0.5 µg/mL	0.906	0.699	–	0.306	–	–	0.0436	0.0585	0.0458
S. pneumoniae D39V, first compound 1 µg/mL	0.821	0.686	–	0.366	–	–	0.0323	0.0545	0.0428
S. pneumoniae D39V, first compound 2 µg/mL	0.618	0.462	–	0.246	–	–	0.0402	0.0396	0.0545
